Laboratory results taken from patent US9926282B2, “Phthalazinones and isoquinolinones as rock inhibitors” (BRISTOL-MYERS SQUIBB COMPANY, priority 2013, dated 2018).

What was measured:
ROCK2 = ROCK2 (Homo sapiens (Human), UniProt O75116); experiment: ROCK assay (LABCHIP peptide phosphorylation), ROCK2; type: biochemical; settings: 5 μM ATP, 1.5 μM peptide substrate
ROCK1 = ROCK1 (Homo sapiens (Human), UniProt Q13464); experiment: ROCK assay (LABCHIP peptide phosphorylation), ROCK1; type: biochemical; settings: 5 μM ATP, 1.5 μM peptide substrate; read-out: ROCK1 IC50
ROCK1, sequence (Q13464 whole entry, species assumed): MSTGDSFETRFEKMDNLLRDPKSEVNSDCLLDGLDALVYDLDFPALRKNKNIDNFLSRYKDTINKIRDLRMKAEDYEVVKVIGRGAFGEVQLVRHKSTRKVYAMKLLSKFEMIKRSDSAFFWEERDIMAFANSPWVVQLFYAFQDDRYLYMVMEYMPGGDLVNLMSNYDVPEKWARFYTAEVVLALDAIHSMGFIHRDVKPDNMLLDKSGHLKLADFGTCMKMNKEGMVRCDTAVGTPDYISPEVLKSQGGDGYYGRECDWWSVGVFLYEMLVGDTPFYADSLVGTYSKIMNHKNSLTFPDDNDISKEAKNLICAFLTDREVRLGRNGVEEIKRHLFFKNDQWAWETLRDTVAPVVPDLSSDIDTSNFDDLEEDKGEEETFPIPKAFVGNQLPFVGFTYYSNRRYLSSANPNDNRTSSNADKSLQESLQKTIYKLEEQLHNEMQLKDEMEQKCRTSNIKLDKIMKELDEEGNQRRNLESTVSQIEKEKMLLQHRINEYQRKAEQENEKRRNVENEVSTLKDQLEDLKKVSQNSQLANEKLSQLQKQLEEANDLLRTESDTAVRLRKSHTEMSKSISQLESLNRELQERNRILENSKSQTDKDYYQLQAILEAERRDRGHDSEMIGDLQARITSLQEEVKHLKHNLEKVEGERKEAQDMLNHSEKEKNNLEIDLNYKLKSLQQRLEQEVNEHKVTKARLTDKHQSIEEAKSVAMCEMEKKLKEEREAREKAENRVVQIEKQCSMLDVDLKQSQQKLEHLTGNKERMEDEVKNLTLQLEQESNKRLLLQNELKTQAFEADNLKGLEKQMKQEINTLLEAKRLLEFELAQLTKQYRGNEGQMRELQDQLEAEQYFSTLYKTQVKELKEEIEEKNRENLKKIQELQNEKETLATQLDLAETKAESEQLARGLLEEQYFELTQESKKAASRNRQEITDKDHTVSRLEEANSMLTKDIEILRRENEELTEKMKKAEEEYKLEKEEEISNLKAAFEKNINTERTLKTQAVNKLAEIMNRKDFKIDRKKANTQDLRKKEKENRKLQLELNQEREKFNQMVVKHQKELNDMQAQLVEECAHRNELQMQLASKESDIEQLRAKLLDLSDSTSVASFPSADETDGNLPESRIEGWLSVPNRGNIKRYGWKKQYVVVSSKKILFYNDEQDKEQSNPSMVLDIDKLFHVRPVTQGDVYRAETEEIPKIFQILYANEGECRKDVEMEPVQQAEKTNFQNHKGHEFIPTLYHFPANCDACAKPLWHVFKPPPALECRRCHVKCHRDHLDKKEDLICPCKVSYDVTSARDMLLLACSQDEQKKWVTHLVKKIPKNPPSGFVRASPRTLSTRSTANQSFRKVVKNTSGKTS

ROCK2, sequence (O75116 whole entry, species assumed): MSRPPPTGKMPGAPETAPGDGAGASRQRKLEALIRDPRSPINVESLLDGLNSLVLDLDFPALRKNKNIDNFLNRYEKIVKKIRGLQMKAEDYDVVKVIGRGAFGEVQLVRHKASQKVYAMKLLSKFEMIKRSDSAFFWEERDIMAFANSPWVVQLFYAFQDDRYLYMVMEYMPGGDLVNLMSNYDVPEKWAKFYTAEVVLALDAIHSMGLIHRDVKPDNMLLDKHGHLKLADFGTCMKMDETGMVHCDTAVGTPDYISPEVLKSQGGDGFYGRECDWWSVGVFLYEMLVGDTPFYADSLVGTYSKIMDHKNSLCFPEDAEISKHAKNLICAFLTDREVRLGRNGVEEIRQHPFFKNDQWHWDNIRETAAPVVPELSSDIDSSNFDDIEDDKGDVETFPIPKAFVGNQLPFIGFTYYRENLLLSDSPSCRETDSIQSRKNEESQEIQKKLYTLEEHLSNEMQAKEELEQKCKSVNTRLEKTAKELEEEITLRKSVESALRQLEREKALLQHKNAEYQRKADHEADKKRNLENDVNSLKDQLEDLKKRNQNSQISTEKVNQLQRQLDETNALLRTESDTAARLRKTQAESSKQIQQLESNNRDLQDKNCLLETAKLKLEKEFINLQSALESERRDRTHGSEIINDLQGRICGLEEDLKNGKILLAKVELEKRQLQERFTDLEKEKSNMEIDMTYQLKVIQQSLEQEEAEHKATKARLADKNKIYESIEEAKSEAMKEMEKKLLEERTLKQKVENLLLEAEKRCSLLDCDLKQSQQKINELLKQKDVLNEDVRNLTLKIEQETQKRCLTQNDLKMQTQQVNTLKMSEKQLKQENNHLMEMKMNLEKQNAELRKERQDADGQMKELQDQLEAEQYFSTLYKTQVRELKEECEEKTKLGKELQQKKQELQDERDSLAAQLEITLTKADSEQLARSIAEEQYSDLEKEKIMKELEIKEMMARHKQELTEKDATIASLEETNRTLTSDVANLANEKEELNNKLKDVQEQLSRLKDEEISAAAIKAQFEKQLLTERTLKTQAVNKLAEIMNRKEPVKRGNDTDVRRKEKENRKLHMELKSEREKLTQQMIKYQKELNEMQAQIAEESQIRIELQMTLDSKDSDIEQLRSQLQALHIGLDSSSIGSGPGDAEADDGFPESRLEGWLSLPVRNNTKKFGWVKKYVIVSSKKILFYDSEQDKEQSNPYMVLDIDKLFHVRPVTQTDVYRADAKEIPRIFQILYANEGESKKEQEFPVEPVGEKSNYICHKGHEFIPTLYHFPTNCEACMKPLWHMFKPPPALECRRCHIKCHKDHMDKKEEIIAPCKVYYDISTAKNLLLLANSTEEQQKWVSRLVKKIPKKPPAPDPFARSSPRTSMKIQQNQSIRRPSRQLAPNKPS

Compound | IC50 (ROCK2) | IC50 (ROCK1)
O=C(Oc1ccc(-c2n[nH]c(=O)c3ccccc23)cc1)N1Cc2ccc(F)cc2C1 [Example 71, 4-(4-Oxo-3,4-dihydrophthalazin-1-yl)phenyl 5-fluoroisoindoline-2-carboxylate] | 0.1 to 100 nM | 1000 to 50000 nM
Cc1cc(C(=O)Nc2ccc(-c3n[nH]c(=O)c4ccccc34)cc2)nn1C(C)(C)C [Example 235, 1-tert-butyl-5-methyl-N-[4-(4-oxo-3,4-dihydrophthalazin-1-yl)phenyl]-1H-pyrazole-3-carboxamide] | 0.1 to 100 nM | 0.1 to 100 nM
COc1ccc(C#N)c(-n2cnc(C(=O)Nc3ccc(-c4n[nH]c(=O)c5ccccc45)cc3)n2)c1 [Example 239, 1-(2-cyano-5-methoxyphenyl)-N-[4-(4-oxo-3,4-dihydrophthalazin-1-yl)phenyl]-1H-1,2,4-triazole-3-carboxamide] | 0.1 to 100 nM | 101 to 1000 nM
O=C(Cc1ccc(-c2c[nH]c(=O)c3ccccc23)c(F)c1)N1CCc2ccccc21 [Example 287, 4-(2-Fluoro-4-(2-(indolin-1-yl)-2-oxoethyl)phenyl)isoquinolin-1 (2H)-one] | 0.1 to 100 nM | 0.1 to 100 nM
O=c1[nH]nc(-c2ccc(Nc3ncc(-c4ccccc4)o3)cc2)c2ccccc12 [Example 73, 4-(4-((5-Phenyloxazol-2-yl)amino)phenyl)phthalazin-1 (2H)-one] | 0.1 to 100 nM | 101 to 1000 nM
O=C(Nc1ccc(-c2c[nH]c(=O)c3ccccc23)cc1)c1onc2ccccc12 [Example 247, N-(4-(1-Oxo-1,2-dihydroisoquinolin-4-yl)phenyl)benzo[c]isoxazole-3-carboxamide] | 0.1 to 100 nM | 0.1 to 100 nM
Cn1nc(C(F)(F)F)cc1C(=O)Nc1ccc(-c2n[nH]c(=O)c3ccccc23)cc1 [Example 408, 1-Methyl-N-(4-(4-oxo-3,4-dihydrophthalazin-1-yl)phenyl)-3-(trifluoromethyl)-1H-pyrazole-5-carboxamide] | 0.1 to 100 nM | 101 to 1000 nM
O=C(Nc1ccc(-c2n[nH]c(=O)c3ccccc23)cc1)C1CC(c2cccc(Cl)c2F)=NO1 (centres unmarked) [Example 193, 3-(3-chloro-2-fluorophenyl)-N-[4-(4-oxo-3,4-dihydrophthalazin-1-yl)phenyl]-4,5-dihydro-1,2-oxazole-5-carboxamide] | 101 to 1000 nM | 1000 to 50000 nM
O=C(Nc1ccc(-c2n[nH]c(=O)c3ccccc23)cc1)c1cnc2ccccn12 [Example 104, N-[4-(4-oxo-3,4-dihydrophthalazin-1-yl)phenyl]imidazo[1,2-a]pyridine-3-carboxamide] | 0.1 to 100 nM | 0.1 to 100 nM
O=C(Nc1ccc(-c2n[nH]c(=O)c3ccccc23)cc1)c1cnn(-c2cccc(Cl)c2)c1 [Example 198, 1-(3-chlorophenyl)-N-[4-(4-oxo-3,4-dihydrophthalazin-1-yl)phenyl]-1H-pyrazole-4-carboxamide] | 0.1 to 100 nM | 0.1 to 100 nM
O=C(Nc1ccc(-c2n[nH]c(=O)c3ccccc23)cc1)c1cnn([C@H]2C[C@@H]3CC[C@H]2C3)c1 [Example 393, 1-((1S,2S,4R)-Bicyclo[2.2.1]heptan-2-yl)-N-(4-(4-oxo-3,4-dihydrophthalazin-1-yl)phenyl)-1H-pyrazole-4-carboxamide] | 0.1 to 100 nM | 0.1 to 100 nM
Cn1nc(C(=O)Nc2ccc(-c3n[nH]c(=O)c4ccccc34)c(CO)c2)c2ccccc21 [Example 363, N-(3-(Hydroxymethyl)-4-(4-oxo-3,4-dihydrophthalazin-1-yl)phenyl)-1-methyl-1H-indazole-3-carboxamide] | 0.1 to 100 nM | 1000 to 50000 nM
Cc1c(C(=O)Nc2ccc(-c3n[nH]c(=O)c4ccccc34)cc2)nnn1-c1ccccc1F [Example 222, 1-(2-fluorophenyl)-5-methyl-N-[4-(4-oxo-3,4-dihydrophthalazin-1-yl)phenyl]-1H-1,2,3-triazole-4-carboxamide] | 0.1 to 100 nM | 0.1 to 100 nM
COc1ccc2c(=O)[nH]cc(-c3ccc(CC(=O)N4Cc5ccccc5C4)cc3)c2c1 [Example 262, 4-{4-[2-(2,3-Dihydro-1H-isoindol-2-yl)-2-oxoethyl]phenyl}-6-methoxy-1,2-dihydroisoquinolin-1-one] | 0.1 to 100 nM | 101 to 1000 nM
CC(C)(C)n1cc(C(=O)Nc2ccc(-c3n[nH]c(=O)c4ccccc34)cc2)cn1 [Example 381, 1-(tert-Butyl)-N-(4-(4-oxo-3,4-dihydrophthalazin-1-yl)phenyl)-1H-pyrazole-4-carboxamide] | 0.1 to 100 nM | 0.1 to 100 nM
CC(C)(O)CCn1nc(C(=O)Nc2ccc(-c3n[nH]c(=O)c4ccccc34)cc2)c2ccccc21 [Example 333, 1-(3-Hydroxy-3-methylbutyl)-N-(4-(4-oxo-3,4-dihydrophthalazin-1-yl)phenyl)-1H-indazole-3-carboxamide] | 0.1 to 100 nM | 0.1 to 100 nM
O=C(Nc1ccc(-c2n[nH]c(=O)c3ccccc23)cc1)C1CCN(c2ccc([N+](=O)[O-])cc2)CC1 [Example 54, 1-(4-nitrophenyl)-N-[4-(4-oxo-3,4-dihydrophthalazin-1-yl)phenyl]piperidine-4-carboxamide] | 0.1 to 100 nM | 101 to 1000 nM

Compound | IC50 (ROCK2) | IC50 (ROCK1)
CCOc1ccc2c(c1)N(C(=O)Cc1ccc(-c3n[nH]c(=O)c4ccccc34)cc1)CC2 [Example 33, 4-{4-[2-(6-ethoxy-2,3-dihydro-1H-indol-1-yl)-2-oxoethyl]phenyl}-1,2-dihydrophthalazin-1-one] | 0.1 to 100 nM | 0.1 to 100 nM
CC(C)(O)COc1ccn2ncc(C(=O)Nc3ccc(-c4n[nH]c(=O)c5ccccc45)cc3)c2c1 [Example 181, 5-(2-hydroxy-2-methylpropoxy)-N-[4-(4-oxo-3,4-dihydrophthalazin-1-yl)phenyl]pyrazolo[1,5-a]pyridine-3-carboxamide] | 0.1 to 100 nM | 101 to 1000 nM
N-[4-(4-oxo-3,4- dihydrophthalazin-1- yl)phenyl]-1-[3- ylmethyl]-1H-indazole- 3-carboxamide [Example 170] | 0.1 to 100 nM | 0.1 to 100 nM
COc1ccccc1-n1cc(C(=O)Nc2ccc(-c3n[nH]c(=O)c4ccccc34)cc2)nn1 [Example 406, 1-(2-Methoxyphenyl)-N-(4-(4-oxo-3,4-dihydrophthalazin-1-yl)phenyl)-1H-1,2,3-triazole-4-carboxamide] | 0.1 to 100 nM | 0.1 to 100 nM
COCCOc1ccn2ncc(C(=O)Nc3ccc(-c4n[nH]c(=O)c5ccccc45)cc3)c2c1 [Example 184, 5-(2-methoxyethoxy)-N-[4-(4-oxo-3,4-dihydrophthalazin-1-yl)phenyl]pyrazolo[1,5-a]pyridine-3-carboxamide] | 0.1 to 100 nM | 0.1 to 100 nM
O=C(Nc1ccc(-c2n[nH]c(=O)c3ccccc23)cc1)c1cnn(CC(F)F)c1 [Example 386, 1-(2,2-Difluoroethyl)-N-(4-(4-oxo-3,4-dihydrophthalazin-1-yl)phenyl)-1H-pyrazole-4-carboxamide] | 0.1 to 100 nM | 101 to 1000 nM
O=C(Nc1ccc(-c2n[nH]c(=O)c3ccccc23)cc1)c1ccc(N2CCOCC2)cc1 [Example 63, 4-(morpholin-4-yl)-N-[4-(4-oxo-3,4-dihydrophthalazin-1-yl)phenyl]benzamide] | 0.1 to 100 nM | 101 to 1000 nM
O=C(Nc1ccc(-c2n[nH]c(=O)c3ccccc23)cc1)c1cc2ccccc2n1Cc1ccccc1 [Example 136, 1-benzyl-N-[4-(4-oxo-3,4-dihydrophthalazin-1-yl)phenyl]-1H-indole-2-carboxamide] | 0.1 to 100 nM | 1000 to 50000 nM
CC(C)(O)Cn1nc(C(=O)Nc2ccc(-c3n[nH]c(=O)c4ccccc34)cc2O)c2ccccc21 [Example 353, 1-(2-Hydroxy-2-methylpropyl)-N-(2-hydroxy-4-(4-oxo-3,4-dihydrophthalazin-1-yl)phenyl)-1H-indazole-3-carboxamide] | 0.1 to 100 nM | 101 to 1000 nM
Cc1ccc2[nH]c(C(=O)Nc3ccc(-c4n[nH]c(=O)c5ccccc45)cc3)cc2c1 [Example 101, 5-methyl-N-[4-(4-oxo-3,4-dihydrophthalazin-1-yl)phenyl]-1H-indole-2-carboxamide] | 0.1 to 100 nM | 0.1 to 100 nM
O=C(Cc1ccc(-c2n[nH]c(=O)c3ccccc23)cc1)Nc1nc2ccccc2o1 [Example 10, N-(1,3-benzoxazol-2-yl)-2-[4-(4-oxo-3,4-dihydrophthalazin-1-yl)phenyl]acetamide] | 0.1 to 100 nM | 101 to 1000 nM
Cc1cc(C(=O)Nc2ccc(-c3n[nH]c(=O)c4ccccc34)cc2)nn1C [Example 205, 1,5-dimethyl-N-[4-(4-oxo-3,4-dihydrophthalazin-1-yl)phenyl]-1H-pyrazole-3-carboxamide] | 0.1 to 100 nM | 101 to 1000 nM
O=C(Nc1ccc(-c2n[nH]c(=O)c3ccccc23)cc1)c1nc2ncccn2n1 [Example 112, N-[4-(4-oxo-3,4-dihydrophthalazin-1-yl)phenyl]-[1,2,4]triazolo[1,5-a]pyrimidine-2-carboxamide] | 101 to 1000 nM | 1000 to 50000 nM
O=C(Nc1ccc(-c2n[nH]c(=O)c3ccccc23)cc1)C1CCN(c2ccccc2)C1=O (centres unmarked) [Example 215, 2-oxo-N-[4-(4-oxo-3,4-dihydrophthalazin-1-yl)phenyl]-1-phenylpyrrolidine-3-carboxamide] | 101 to 1000 nM | 101 to 1000 nM
COCCn1nc(C(=O)Nc2ccc(-c3n[nH]c(=O)c4ccccc34)cc2)c2ccccc21 [Example 151, 1-(2-methoxyethyl)-N-[4-(4-oxo-3,4-dihydrophthalazin-1-yl)phenyl]-1H-indazole-3-carboxamide] | 0.1 to 100 nM | 0.1 to 100 nM
COc1ccc2c(=O)[nH]cc(-c3ccc(CC(=O)N4CCc5ccc(OCC(C)(C)O)cc54)cc3)c2c1 [Example 289, 4-(4-(2-(6-(2-Hydroxy-2-methylpropoxy)indolin-1-yl)-2-oxoethyl)phenyl)-6-methoxyisoquinolin-1(2H)-one] | 0.1 to 100 nM | 0.1 to 100 nM
Cc1nn(-c2ccccc2)cc1C(=O)Nc1ccc(-c2n[nH]c(=O)c3ccccc23)cc1 [Example 228, 3-methyl-N-[4-(4-oxo-3,4-dihydrophthalazin-1-yl)phenyl]-1-phenyl-1H-pyrazole-4-carboxamide] | 0.1 to 100 nM | 0.1 to 100 nM
